Source: US20250179481A1, “COMPOSITIONS AND METHODS FOR TARGETING, EDITING, OR MODIFYING GENES” (Celyntra Therapeutics SA, priority 2021, published 2025)

How the values were obtained:
[1] = test system: predicted off-target sites; test: INDEL frequency at predicted off-target sites (CasOFFinder, targeted deep sequencing) in Jurkat cells; assay type: cell-based, human; conditions: crPDCD1: <=4 mismatches, remaining gNAs <=3 mismatches, vs MOCK, Pairwise T-test
Procedure: Another consideration for selecting gNAs is the potential for off-target cleavage events. The list of validated gNAs was analyzed using the CasOFFinder software to predict potential off-target editing sites in the genome with up to four mismatches between the gNA and the target DNA sequence. Using the Bioconductor R packages, the predicted off-target sites were matched with the human gene database, and those sites that targeted exons and introns within the genes were extracted. Afterwards, the degree of editing activity at these sites was examined by targeted next-generation sequencing, more specifically, at 25 predicted off-target sites for the top-two PDCD1 gNAs, i.e., crPDCD1_1 and crPDCD1_2. […] INDEL frequency at 43 putative off-target sites with up to three mismatches between gNA and target DNA sequence were assayed for the top-two gNAs targeting seven remaining genes (i.e., TIM3, LAG3, TIG1T, CTLA4, PTPN6, PTPN11, and CD247; spacer sequences in Table 5). […] Specifically. FIGS. 18-19 show INDEL frequency of MAD7 (n=3; Mean±SD) in T-cell leukemic cell line at predicted off-target sites analyzed by targeted deep sequencing. For crPDCD1. INDEL frequency was analyzed at the putative off-target editing sites with ≤4 mismatches between the gNA and target DNA sequence, and with ≤3 mismatches on the remaining gNAs.

PDCD1 protein = test: Surface expression of the PDCD1 protein by flow cytometry in Jurkat cells; assay type: cell-based, human; conditions: flow cytometry 4, 7 and 11 days post-transfection, crPDCD1_2 value at day 4, same at day 11
Procedure: For detection of PDCD1 knock-out efficiency, approx. 250,000 Jurkat cells per sample were transferred onto 96-well V-bottom cell culture plates and assessed following a series of consecutive washing and staining steps. The first step included centrifuging the cells at 300 g for 5 minutes at 4° C., and discarding the supernatant. Afterwards, the cells were stained using 100 μL Cell Staining Buffer (Biolegend) with APC/Cyanine7 anti-human CD279 (PD-1) antibody (1:100: Biolegend) and incubated for 30 minutes at 4° C., in the dark. The cells were then centrifuged at 300 g for 5 minutes at 4° C., and the supernatant discarded. The next step included two repeats of centrifugation at 300 g for 5 minutes at 4° C., supernatant removal, and cell washing in 150 μL ice-cold Cell Staining Buffer (Biolegend). In the final step, the cells were re-suspended in 100 μL Cell Staining Buffer for the flow cytometry measurements (excitation: red laser; emission: […]).
(§1) High-efficiency gNAs identified in our initial analysis were validated by assaying INDEL frequency for the top three or five gNAs for each of the selected immunologically relevant genes (FIG. 15). […] Alternating grey and white zones on the plot represent groups of three to five high-efficiency gNAs per locus. […] Using the CRISPresso2 software, the degree of open reading frame (ORF) disruption for each of the validated gNAs was estimated (FIG. 15). In addition, for four high-efficiency gNAs targeting three different exons at the PDCD1 locus, surface expression of the PDCD1 protein was measured by flow cytometry 4, 7, and 11 days post-transfection (data not shown).

TIM3 = test: gNA validation: frameshift (ORF disruption) frequency, TIM3; assay type: cell-based, human; conditions: Jurkat, CRISPResso2 ORF analysis
Procedure: Initial quality assessment of the obtained reads was performed with FastQC36. The sequencing data were aligned and analyzed with the CRISPResso2 software, using CRISPRessoBatch command with the parameters—cleavage_offset 1—quantification_window_size 10—quantification_window_center 1—expand_ambiguous_alignments for the INDEL frequency analysis. For the ORF disruption analysis, CRISPRessoBatch command with the parameters—cleavage_offset 1—coding_seq <EXON_SEQ>—quantification_window_size 0—quantification_window_center 1—expand_ambiguous_alignments was used. Modification rates from the CRISPResso2 software output were analyzed in Excel.
as §1
Average fraction of INDELs leading to frameshifts (dashed line) is approx. 66%. […]

CSF2 [2] = test: Cutting efficiency by Amplicon-NGS in Jurkat cells, CSF2; assay type: cell-based, human
Text: (§2) T-cells were isolated […] buffy coats and nucleofected after two days. The buffy coats were procured from the Rigshospitalet in Copenhagen, Denmark. The Pan-T cells were enriched by negative selection using an Easy Sep Human T-cell Isolation Kit from StemCell Technologies. The RNPs were formed by mixing gRNAs with Art-Mad7mam+ prior to nucleofection with Jurkat or T-cells. In some cases, synthetic ssODNs (Table 11) with a length of 200 nt were included in the transfections to evaluate impact on frame shift mutation rates by HDR rather than relying on NHEJ alone in an effort to maximize functional disruption. The ssODNs were designed to comprise a deletion of the spacer and PAM sequence thereby resulting in a programmed frame shift. After transfection, the cells were cultivated and assayed for the different readouts. The nucleofection with dual gRNAs followed a similar protocol, but with minor differences in pre-assembling of the gRNAs. Briefly, the two dual RNAs (modulator and targeter) are combined in a molecular ratio of 1:1 (400 μM Modulator
At the genome level, Amplicon-NGS was used to determine the type and mutation frequency at the on-target site. The Amplicon-NGS assay is based on the amplification of the on-target site using specific primer pairs. […] Crispresso aligns the sequencing reads to the reference amplicon and analyzes the mutation type and frequency −/+10 nt at the putative cut site of Art-Mad7mam+ based on the provided gRNA sequence. […]
The cutting efficiency was calculated as the percentage of reads with any NHEJ modification (including insertions, deletions, and/or substitutions) of the total number of reads that were aligned to the reference amplicon. […]
The top gRNAs identified in the tiling experiments in, were further tested by performing additional nucleofections in Jurkat cells and measuring viability, INDEL formation by amplicon-NGS, and functional flow cytometry assays. […] For the Amplicon-NGS readout three days after transfection, genomic DNA was prepared, amplicons generated, and sequence analyzed. […]

CSF2 [3] = test: Functional KO in Pan T-cells: intracellular CSF2 staining after PMA and Ionomycin; assay type: cell-based, human
Procedure: Protein expression for targeted genes was measured by antibody staining against the target protein to quantify functional disruption of the target gene. The efficiency of functional disruption was verified by antibody staining and quantified as the negative cell population by flow cytometry. TRBC, CD3E and CD40LG are located at the cell surface and living cells were stained with the corresponding antibodies. Since CSF2 is a secreted protein, cells were first activated, secretion was blocked, cells were fixed with formaldehyde, and permeabilized before the staining procedure. Given CD40LG and CSF2 are expressed upon stimulation of primary T-cells, cells were activated first to enhance their expression. The induction of CD40LG and CSF2 was achieved using anti-CD3/CD28 and PMA/Ionomycin, respectively.
The best CSF2 gRNA was identified as gCSF2_007 in the Jurkat experiment. In Pan T-cells, the cutting efficiency was approximately 65% and 45% and could be increased by ssODN inclusion to ˜80 and 70% for the regular and STAR design, respectively (FIG. 33E). […] The cells were treated with PMA and Ionomycin to strongly activate the cells and blocked the secretion of the protein with Golgiplug and Golgistop and stained the cells after fixation and permeabilization for the intracellular accumulated CSF2 proteins.

CSF2 [4] = test: On-target Amplicon-NGS in Pan T-cells, CSF2; assay type: cell-based, human
Text: as §2
(§3) At the genome level, Amplicon-NGS was used to determine the type and mutation frequency at the on-target site. The Amplicon-NGS assay is based on the amplification of the on-target site using specific primer pairs. The primers are designed to have the predicted cutting site at the center and a length of 180-280 nt. The amplicons are indexed for NGS and sequenced on an Illumina MiSeq system. The analysis was performed using the Crispresso script. Crispresso requires the input of a configuration file comprised of the specific gRNA sequence, primer sequences and the theoretical amplicon that is based on the alignment of the primer pair to the reference human genome GRCh38. In addition, for HDR analysis associated with ssODN-programmable editing a reference sequence with the specific mutations can be input into the configuration file. Crispresso aligns the sequencing reads to the reference amplicon and analyzes the mutation type and frequency −/+10 nt at the putative cut site of Art-Mad7mam+ based on the provided gRNA sequence. As output, Crispresso delivers different mutation types and their frequencies: Substitutions, INDELs, HDR Unmodified, HDR INDELs, HDR+substitutions.
(§4) To further test the effects of ssODNs, single and dual gRNAs were mixed with Art-MAD7mam+ nuclease, and in some cases included a ssODN designed to create a programmed disruption in the target gene. The freshly isolated Pan-T cells were activated and cultured for 2 days, and RNPs−/+ssODNs were transfected using the Lonza 96-well plate shuttle. […]

TRBC1 and TRBC2 = test: On-target Amplicon-NGS in Pan T-cells, TRBC; assay type: cell-based, human
Text: as §2, §3, §4

human genes = test: Editing efficiency of tested crRNAs / guide nucleic acids (Tables 7-10) detected in human cells; assay type: cell-based; conditions: tested crRNAs targeting human genes; target gene as given (Table 10)

## crPDCD1_1: top-two PDCD1 gNA (guide GCACGAAGCTCTCCGATGTGT; spacer only, further chemistry not given here)
[1]
  INDEL frequency at predicted off-target sites: No significant INDEL frequency

## crPDCD1_3: high-efficiency gNA targeting the PDCD1 locus (guide CAGTGGCGAGAGAAGACCCCG; spacer only, further chemistry not given here)
PDCD1 protein
  surface expression of the PDCD1 protein: 35%

## crPDCD1_4: high-efficiency gNA targeting the PDCD1 locus (guide CTAGCGGAATGGGCACCTCAT; spacer only, further chemistry not given here)
PDCD1 protein
  surface expression of the PDCD1 protein: 85%

## crPDCD1_5: high-efficiency gNA targeting the PDCD1 locus (guide GTGCTAAACTGGTACCGCATG; spacer only, further chemistry not given here)
PDCD1 protein
  surface expression of the PDCD1 protein: 85%

## crTIM3_1: validated high-efficiency gNA, TIM3 (guide CTTGTAAGTAGTAGCAGCAGC; spacer only, further chemistry not given here)
TIM3
  frameshifts frequency (fraction of frameshift to INDEL): 23%

## crTIM3_3: validated high-efficiency gNA, TIM3 (guide TAAGTAGTAGCAGCAGCAGCA; spacer only, further chemistry not given here)
TIM3
  frameshifts frequency (fraction of frameshift to INDEL): 44%

## gCSF2_007: best CSF2 gRNA; dual form Targeter_CSF2_007 UUGUAGAUCACAGGAGCCGACCUGCCUAC (synthetic gRNA ordered from IDT, chemistry not given here)
CSF2 [2]; CSF2 gRNAs, Jurkat cells, Amplicon-NGS
  Average on-target editing efficiency: 31.1
CSF2 [2]; CSF2 gRNAs, combines on-target editing efficiency and predicted off-target score
  Total score: 30.7
CSF2 [2]; Jurkat verification
  cutting efficiency (rank among the three CSF2 gRNAs): highest
CSF2 [3]; dual gRNA
  negative CSF2 cell population: ~60%
CSF2 [3]; dual gRNA with the ssODN
  negative CSF2 cell population: ~80%
CSF2 [3]; regular gRNA with the ssODN
  negative CSF2 cell population: ~90%
CSF2 [3]; regular gRNA, 70% of control cells CSF2 positive
  negative CSF2 cell population: ~75%
CSF2 [4]; STAR design
  cutting efficiency: ~45%
CSF2 [4]; STAR design, ssODN inclusion
  cutting efficiency: ~70%
CSF2 [4]; regular design
  cutting efficiency: approximately 65%
CSF2 [4]; regular design, ssODN inclusion
  cutting efficiency: ~80%

## gTRBC1_2_003: gRNA targeting both TRBC1 and TRBC2; dual form Targeter_TRBC1_2_003 UUGUAGAUAGCCAUCAGAAGCAGAGAUCU (dual-guide targeter with IDT AltR2 3' modification, chemistry undefined, further chemistry not given here)
TRBC1 and TRBC2
  lower INDEL frequency, dual vs regular configuration: ~5%
TRBC1 and TRBC2; inclusion of ssODNs
  perfect HDR rate: ~40%
TRBC1 and TRBC2; inclusion of ssODNs, all cases
  mutation rate: > 90%
TRBC1 and TRBC2; regular gRNA configuration
  INDEL frequency at the on-target site: ~90%

## gU6_5 (guide ATATATCTTGTGGAAAGGACG; chemistry not given here)
Human genes
  % Indel: 0.39%

## gU6_6 (guide TATATCTTGTGGAAAGGACGA; chemistry not given here)
Human genes
  % Indel: 0.39%

## gU6_7 (guide TGGAAAGGACGAAACACCGTG; chemistry not given here)
Human genes
  % Indel: 0.24%
